According to US20160222014A1, “COMPOUNDS FOR REGULATING FAK AND/OR SRC PATHWAYS” (ASANA BIOSCIENCES, LLC, priority 2013, published 2016):

Key:
AURKB (Aurora B) enzyme = target: T1, AURKB (Aurora B) enzyme (Homo sapiens, UniProt Q96GD4); test: Aurora B HTRF assay; format: biochemical; conditions: read-out: AuroraB IC50
T1 construct: purchased Invitrogen PVR 130
Procedure, shortened: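 Enzyme (5 nM final) and ULight-labelled PLK Ser137 peptide (50 nM) reacted 1 h at room temperature; a 30 μM final component was also present. Detection used EDTA-containing buffer with europium anti-phospho-PLK(Ser137) antibody at 2 nM, 1 h, then time-resolved FRET readout.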

Recombinant Src enzyme = target: T2, Recombinant Src enzyme (Homo sapiens, UniProt P12931); test: Src HTRF assay; format: biochemical
T2 construct: purchased Millipore 14-326; host or cells: Sf21 insect cells
Procedure, shortened: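 Run as for the FAK HTRF assay (same buffer, supplements, compound preparation and procedure), with dasatinib included. Reaction contained 0.5 μM biotin-tagged Tyk2 synthetic peptide, 5 nM Src made in Sf21 cells, and a pH7.4-buffer-prepared component at 10 μM final.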

T1 sequence (Q96GD4 whole entry): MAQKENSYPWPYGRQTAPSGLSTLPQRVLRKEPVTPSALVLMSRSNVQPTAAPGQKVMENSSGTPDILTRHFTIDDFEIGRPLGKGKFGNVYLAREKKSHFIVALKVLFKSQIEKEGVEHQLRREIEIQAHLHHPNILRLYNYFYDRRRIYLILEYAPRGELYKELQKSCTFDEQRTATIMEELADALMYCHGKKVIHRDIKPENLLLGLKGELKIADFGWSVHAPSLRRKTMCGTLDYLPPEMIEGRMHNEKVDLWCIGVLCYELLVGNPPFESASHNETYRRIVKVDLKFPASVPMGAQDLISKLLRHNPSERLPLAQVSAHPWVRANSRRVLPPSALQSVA
T2 sequence (P12931 whole entry): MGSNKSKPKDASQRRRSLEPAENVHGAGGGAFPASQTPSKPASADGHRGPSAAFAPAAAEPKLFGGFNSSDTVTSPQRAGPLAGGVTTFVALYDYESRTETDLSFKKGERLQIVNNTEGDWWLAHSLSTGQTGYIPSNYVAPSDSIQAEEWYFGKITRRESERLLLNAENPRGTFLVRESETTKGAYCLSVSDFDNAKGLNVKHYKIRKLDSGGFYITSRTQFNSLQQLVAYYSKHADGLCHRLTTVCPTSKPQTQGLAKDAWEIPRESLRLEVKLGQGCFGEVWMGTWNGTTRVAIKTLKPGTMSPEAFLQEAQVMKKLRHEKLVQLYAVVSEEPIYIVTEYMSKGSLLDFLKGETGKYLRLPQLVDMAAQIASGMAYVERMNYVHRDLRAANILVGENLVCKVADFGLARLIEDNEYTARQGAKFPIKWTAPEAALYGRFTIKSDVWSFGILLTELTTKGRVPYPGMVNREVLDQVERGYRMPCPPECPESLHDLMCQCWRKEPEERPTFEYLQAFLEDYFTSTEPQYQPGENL

Row | Structure (SMILES) | IC50 (AURKB (Aurora B) enzyme) | IC50 (Recombinant Src enzyme)
1 | FC(F)Oc1ccccc1Cn1ncc2cnc(Nc3ccc4ncsc4c3)cc21 [Example 82] | > 1000 nM | 
2 | CC(=O)Nc1cccc(Nc2cc3c(cn2)cnn3Cc2ccccc2OC(F)F)c1 [Example 64] | > 1000 nM | 
3 | CN(c1ncccc1Cn1ncc2cnc(Nc3ccc4[nH]c(=O)[nH]c4c3)cc21)S(C)(=O)=O [Example 142] |  | > 1000 nM
4 | FC(F)Oc1ccccc1Cn1ccc2cnc(Nc3ccc4ncsc4c3)nc21 [Example 36] | > 1000 nM | 
5 | O=C1CCc2cc(Nc3ncc4cnn(Cc5ccccc5OC(F)F)c4n3)ccc2N1 [Example 21] |  | < 20 nM
6 | Cn1cc(Nc2ncc3ccn(S(=O)(=O)c4cccc5cccnc45)c3n2)cn1 [Example 318] | < 20 nM | 
7 | CN(c1ncccc1Cn1ncc2cnc(Nc3ccc4c(c3)CCC(=O)N4)nc21)S(C)(=O)=O [Example 202] |  | < 20 nM

The next lines start with the values.

Row | IC50 (AURKB (Aurora B) enzyme) | IC50 (Recombinant Src enzyme) | Structure (SMILES)
8 | < 20 nM |  | COc1ccccc1S(=O)(=O)n1ncc2cnc(Nc3ccc(N4CCNCC4)cc3)nc21 [Example 335]
9 | < 20 nM | < 20 nM | O=C1CCc2cc(Nc3ncc4ccn(Cc5cccnc5N5CCCS5(=O)=O)c4n3)ccc2N1 [Example 216]
10 | < 20 nM |  | O=S(=O)(c1cccc2nsnc12)n1ccc2cnc(Nc3ccc(N4CCNCC4)cc3)nc21 [Example 253]
11 | < 20 nM | < 20 nM | Cc1cc(Nc2ncc3cnn(S(=O)(=O)c4cccc5cccnc45)c3n2)ccc1N1CCNCC1 [Example 332]
12 | < 20 nM |  | CN(c1ncccc1Cn1ccc2cnc(Nc3ccc(NCCO)cc3)nc21)S(C)(=O)=O [Example 201]
13 | < 20 nM | > 1000 nM | COc1cc(N2CCNCC2)ccc1Nc1cc2c(ccn2S(=O)(=O)c2cccc3cccnc23)cn1 [Example 330, N-(2-Methoxy-4-(piperazin-1-yl)phenyl)-1-(quinolin-8-ylsulfonyl)-1H-pyrrolo[3,2-c]pyridin-6-amine]
14 | < 20 nM | < 20 nM | O=C1CCc2cc(Nc3ncc4ccn(S(=O)(=O)c5cccc6cccnc56)c4n3)ccc2N1 [Example 169]
